Experimental data from ChEMBL document CHEMBL3988442, “University of Dundee, Small-Polar-MMV Screening Library” (2021).
Where “and” joins values, the source holds several entries; their conditions need not be identical. Equal values may be shown once.

Key:
Type in all cases: functional
[1] = target: Chromo domain-containing protein 1 (Saccharomyces cerevisiae (strain ATCC 204508 / S288c) (Baker's yeast), UniProt P32657); test: ScCHD-1 Enzyme Inhibition Assay
[2] = target: T1, Ubiquitin-activating enzyme e1, putative (Leishmania donovani (strain BPK282A1), UniProt E9BSI1); test: Leishmania donovani Ubiquitin Activating Enzyme (LdE1)
T1 sequence (E9BSI1 whole entry): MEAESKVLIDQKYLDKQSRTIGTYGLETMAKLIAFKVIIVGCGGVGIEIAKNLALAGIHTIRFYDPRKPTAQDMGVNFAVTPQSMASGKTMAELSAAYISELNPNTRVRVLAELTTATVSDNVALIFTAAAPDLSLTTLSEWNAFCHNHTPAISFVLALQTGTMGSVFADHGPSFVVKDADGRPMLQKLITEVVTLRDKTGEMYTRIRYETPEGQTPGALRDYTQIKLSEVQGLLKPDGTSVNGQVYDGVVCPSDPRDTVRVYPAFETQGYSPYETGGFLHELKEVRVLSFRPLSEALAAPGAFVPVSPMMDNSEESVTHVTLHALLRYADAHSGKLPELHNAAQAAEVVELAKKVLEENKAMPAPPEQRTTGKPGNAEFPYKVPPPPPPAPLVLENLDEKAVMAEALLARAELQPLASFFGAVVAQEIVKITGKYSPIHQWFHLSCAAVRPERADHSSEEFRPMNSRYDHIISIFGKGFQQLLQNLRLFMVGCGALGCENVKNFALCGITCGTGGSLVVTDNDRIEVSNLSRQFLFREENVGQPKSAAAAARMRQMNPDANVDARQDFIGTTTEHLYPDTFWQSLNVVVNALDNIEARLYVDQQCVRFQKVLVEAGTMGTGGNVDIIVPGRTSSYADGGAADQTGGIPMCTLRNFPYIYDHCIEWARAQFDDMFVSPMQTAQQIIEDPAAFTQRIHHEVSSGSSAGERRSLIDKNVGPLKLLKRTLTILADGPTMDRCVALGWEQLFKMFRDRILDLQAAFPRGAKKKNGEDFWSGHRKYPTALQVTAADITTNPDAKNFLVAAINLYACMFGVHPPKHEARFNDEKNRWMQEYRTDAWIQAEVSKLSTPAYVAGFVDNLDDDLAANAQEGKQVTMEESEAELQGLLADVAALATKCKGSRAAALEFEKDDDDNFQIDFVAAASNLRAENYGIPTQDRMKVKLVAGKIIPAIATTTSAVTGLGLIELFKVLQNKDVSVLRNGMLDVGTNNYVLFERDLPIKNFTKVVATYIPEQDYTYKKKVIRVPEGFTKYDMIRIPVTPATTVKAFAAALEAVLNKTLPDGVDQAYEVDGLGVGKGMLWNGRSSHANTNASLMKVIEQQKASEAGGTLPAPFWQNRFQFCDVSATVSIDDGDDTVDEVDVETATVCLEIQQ

[3] = target: Polyketide synthase Pks13 (Mycobacterium tuberculosis (strain ATCC 25618 / H37Rv), UniProt I6X8D2); test: Mycobacterium tuberculosis Polyketide synthase 13 Thioesterase (PKS13)
Lysine--tRNA ligase = Lysine--tRNA ligase (Plasmodium falciparum (isolate 3D7), UniProt Q8IDJ8); test: Pf-KRS-1 (Lysyl-RNA Synthetase-1, KRS-1, cytosolic KRS) from Plasmodium falciparum. Inhibitor assay, 384 well plate, luminescence read.
Histidine--tRNA ligase = target: T2, Histidine--tRNA ligase (Leishmania infantum, UniProt A4I591); test: Leishmania infantum Histidine tRNA synthetase (LdHisRS)
T2 sequence (A4I591 whole entry): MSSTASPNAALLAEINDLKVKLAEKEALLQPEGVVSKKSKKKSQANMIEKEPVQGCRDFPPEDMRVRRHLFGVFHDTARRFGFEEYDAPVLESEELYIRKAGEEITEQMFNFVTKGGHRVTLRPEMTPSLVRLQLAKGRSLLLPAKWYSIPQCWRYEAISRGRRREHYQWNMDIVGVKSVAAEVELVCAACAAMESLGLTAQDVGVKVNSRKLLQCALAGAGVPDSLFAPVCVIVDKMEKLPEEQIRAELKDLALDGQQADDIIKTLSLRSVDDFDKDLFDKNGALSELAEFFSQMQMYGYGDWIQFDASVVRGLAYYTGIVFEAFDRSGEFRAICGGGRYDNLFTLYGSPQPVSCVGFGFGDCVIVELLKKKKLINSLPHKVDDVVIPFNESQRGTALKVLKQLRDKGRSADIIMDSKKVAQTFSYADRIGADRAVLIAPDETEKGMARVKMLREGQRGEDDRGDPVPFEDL

Sequence of Chromo domain-containing protein 1 (P32657 whole entry, the tested form may be a part): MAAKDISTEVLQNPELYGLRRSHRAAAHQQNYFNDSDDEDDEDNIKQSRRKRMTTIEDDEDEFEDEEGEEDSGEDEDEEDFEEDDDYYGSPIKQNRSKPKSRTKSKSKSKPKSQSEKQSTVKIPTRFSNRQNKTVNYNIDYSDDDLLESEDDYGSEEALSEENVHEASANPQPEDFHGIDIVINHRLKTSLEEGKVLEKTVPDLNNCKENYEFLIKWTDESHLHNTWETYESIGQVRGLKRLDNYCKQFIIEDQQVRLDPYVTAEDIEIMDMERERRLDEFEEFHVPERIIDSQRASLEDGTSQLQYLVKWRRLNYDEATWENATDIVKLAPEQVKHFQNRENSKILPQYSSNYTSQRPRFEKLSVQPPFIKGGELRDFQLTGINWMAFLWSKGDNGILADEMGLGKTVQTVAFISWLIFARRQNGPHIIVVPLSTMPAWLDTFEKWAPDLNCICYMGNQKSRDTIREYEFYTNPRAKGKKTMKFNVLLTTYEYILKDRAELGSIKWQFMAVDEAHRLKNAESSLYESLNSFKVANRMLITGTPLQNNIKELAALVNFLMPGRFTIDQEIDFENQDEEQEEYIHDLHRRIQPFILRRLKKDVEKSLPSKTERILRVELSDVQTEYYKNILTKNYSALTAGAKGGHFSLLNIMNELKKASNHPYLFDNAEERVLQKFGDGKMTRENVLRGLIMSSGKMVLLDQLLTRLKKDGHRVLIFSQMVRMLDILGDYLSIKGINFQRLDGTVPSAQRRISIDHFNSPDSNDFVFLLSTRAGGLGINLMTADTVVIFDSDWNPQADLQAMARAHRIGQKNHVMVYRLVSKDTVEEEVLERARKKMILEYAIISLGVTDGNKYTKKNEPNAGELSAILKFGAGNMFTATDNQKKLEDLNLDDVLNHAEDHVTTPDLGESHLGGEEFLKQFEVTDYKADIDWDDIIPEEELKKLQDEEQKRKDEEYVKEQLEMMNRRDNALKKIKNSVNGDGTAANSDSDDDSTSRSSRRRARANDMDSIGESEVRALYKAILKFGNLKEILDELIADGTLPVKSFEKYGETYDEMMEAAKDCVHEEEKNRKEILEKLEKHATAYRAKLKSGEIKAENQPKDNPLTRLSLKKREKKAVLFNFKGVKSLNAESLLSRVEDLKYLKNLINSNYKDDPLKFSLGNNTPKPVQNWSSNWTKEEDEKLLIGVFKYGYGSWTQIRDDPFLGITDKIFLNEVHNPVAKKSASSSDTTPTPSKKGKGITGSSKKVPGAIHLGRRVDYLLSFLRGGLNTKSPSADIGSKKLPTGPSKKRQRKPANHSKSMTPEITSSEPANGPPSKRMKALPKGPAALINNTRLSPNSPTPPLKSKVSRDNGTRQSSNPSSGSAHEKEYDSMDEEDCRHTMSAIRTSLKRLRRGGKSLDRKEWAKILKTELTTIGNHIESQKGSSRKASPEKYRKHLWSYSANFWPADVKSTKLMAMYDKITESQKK
Sequence of Lysine--tRNA ligase (Q8IDJ8 whole entry): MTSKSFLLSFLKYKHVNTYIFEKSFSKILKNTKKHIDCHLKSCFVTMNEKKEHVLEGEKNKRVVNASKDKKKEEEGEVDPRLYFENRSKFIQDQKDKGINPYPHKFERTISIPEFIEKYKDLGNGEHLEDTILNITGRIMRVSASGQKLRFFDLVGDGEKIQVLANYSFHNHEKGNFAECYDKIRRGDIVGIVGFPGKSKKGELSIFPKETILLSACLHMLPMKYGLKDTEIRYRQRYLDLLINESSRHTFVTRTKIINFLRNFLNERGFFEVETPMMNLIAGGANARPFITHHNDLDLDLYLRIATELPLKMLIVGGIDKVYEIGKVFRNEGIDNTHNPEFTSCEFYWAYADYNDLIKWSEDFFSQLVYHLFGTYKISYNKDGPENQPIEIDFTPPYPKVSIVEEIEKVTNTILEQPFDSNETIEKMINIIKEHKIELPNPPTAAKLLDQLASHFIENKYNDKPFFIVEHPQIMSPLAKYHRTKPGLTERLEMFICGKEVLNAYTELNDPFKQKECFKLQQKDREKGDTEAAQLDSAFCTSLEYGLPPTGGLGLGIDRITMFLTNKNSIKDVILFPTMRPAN
Sequence of Polyketide synthase Pks13 (I6X8D2 whole entry): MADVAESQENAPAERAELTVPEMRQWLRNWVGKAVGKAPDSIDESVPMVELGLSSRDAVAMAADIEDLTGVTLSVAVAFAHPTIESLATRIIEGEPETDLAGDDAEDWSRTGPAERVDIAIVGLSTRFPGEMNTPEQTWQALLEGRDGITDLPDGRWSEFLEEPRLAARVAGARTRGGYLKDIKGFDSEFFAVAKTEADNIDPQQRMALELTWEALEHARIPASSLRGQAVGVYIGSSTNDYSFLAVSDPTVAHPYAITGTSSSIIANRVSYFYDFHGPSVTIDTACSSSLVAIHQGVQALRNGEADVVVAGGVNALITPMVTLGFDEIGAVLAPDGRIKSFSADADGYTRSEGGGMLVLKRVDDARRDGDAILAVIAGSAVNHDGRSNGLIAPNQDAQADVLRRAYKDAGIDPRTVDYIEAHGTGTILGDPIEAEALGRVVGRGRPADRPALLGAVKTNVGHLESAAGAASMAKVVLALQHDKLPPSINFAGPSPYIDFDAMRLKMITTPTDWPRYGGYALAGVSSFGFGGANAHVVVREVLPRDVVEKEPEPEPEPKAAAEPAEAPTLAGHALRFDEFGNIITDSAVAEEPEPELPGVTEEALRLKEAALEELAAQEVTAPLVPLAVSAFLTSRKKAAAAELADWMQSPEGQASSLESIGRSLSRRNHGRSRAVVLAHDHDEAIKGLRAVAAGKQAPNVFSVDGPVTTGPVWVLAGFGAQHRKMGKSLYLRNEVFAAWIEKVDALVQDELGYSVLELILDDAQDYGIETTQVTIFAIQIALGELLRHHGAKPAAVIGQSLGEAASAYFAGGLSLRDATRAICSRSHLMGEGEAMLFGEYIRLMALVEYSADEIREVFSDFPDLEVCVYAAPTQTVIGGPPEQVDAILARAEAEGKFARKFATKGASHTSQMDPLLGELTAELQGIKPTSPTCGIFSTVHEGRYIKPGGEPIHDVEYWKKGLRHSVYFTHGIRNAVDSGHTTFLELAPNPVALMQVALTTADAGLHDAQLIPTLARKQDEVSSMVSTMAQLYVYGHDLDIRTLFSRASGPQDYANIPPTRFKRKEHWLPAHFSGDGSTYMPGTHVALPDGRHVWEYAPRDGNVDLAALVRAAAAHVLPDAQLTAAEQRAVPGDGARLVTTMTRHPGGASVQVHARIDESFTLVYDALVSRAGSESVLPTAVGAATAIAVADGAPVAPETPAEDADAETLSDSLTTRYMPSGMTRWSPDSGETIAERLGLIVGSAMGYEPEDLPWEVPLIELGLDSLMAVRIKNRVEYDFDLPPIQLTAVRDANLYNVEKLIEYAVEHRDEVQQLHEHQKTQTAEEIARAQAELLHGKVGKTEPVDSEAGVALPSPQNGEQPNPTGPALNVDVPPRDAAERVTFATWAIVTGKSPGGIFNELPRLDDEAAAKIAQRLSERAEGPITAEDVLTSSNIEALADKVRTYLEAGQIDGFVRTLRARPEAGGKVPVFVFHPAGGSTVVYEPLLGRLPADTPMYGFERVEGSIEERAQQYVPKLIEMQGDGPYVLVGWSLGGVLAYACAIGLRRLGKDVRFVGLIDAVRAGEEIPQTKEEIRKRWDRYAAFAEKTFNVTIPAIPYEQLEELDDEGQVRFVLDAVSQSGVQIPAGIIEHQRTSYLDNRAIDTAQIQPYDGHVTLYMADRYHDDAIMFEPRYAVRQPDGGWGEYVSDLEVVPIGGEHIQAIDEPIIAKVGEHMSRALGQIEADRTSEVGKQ

## CC(C)c1nc(C2CCCN2Cc2ccccc2C#N)no1 (configuration not stated)
[1]
  IC50: > 29.5 µM

## CC(=O)N(Cc1noc(C)n1)C1CCN(Cc2ccon2)C1 (configuration not stated)
[1]
  IC50: > 29.5 µM

## COC[C@@]12CC[C@@H](N3CCOCC3)C[C@H]1CCN(c1ncccn1)C2
[1]
  IC50: > 29.5 µM

## Cc1ccc(=O)n(CC2(O)CCN(Cc3cc(C)c(O)c(C)c3)CC2)n1
[1]
  IC50: > 29.5 µM

## CC(C)c1noc(CCC(=O)NC(C)c2nnc3n2CCCCC3)n1 (configuration not stated)
[1]
  IC50: > 29.5 µM

## CCNC(=O)[C@@H]1C[C@H](NC(=O)Cc2ccsc2)CN1Cc1ccc(C)o1
[1]
  IC50: > 29.5 µM

## FC(F)(F)COCCN1CCCC(c2noc(C3CC3)n2)C1 (configuration not stated)
[1]
  IC50: > 29.5 µM

## CN(C)c1ccc(C(=O)N2CCN(C(=O)N3CCCCC3)CC2)nn1
[2]
  IC50: > 100 µM
[3]
  IC50: > 100 µM

## COc1ccc(CC(=O)N(C)Cc2nnc3ccccn23)cc1
[1]
  IC50: > 29.5 µM

## COCCC(=O)N1CCc2cc(Cl)cc(Cl)c2C1
[1]
  IC50: > 29.5 µM

## O=C(COc1coc(CN2CCCCCC2)cc1=O)c1ccccc1
[1]
  IC50: > 29.5 µM

## Cc1ncc(S(C)(=O)=O)c(C2CCCNC2)n1 (configuration not stated)
[1]
  IC50: > 29.5 µM

## Cc1ccc(C(=O)NCCCN2CCOCC2)c(Cl)c1
[1]
  IC50: > 29.5 µM

## CCc1ccc(-n2c(=O)[nH]c3nc(N4CCSCC4)ncc3c2=O)cc1
[1]
  IC50: > 29.5 µM

## COc1c(CNC2CCc3c(Cl)cccc32)c(C)nn1C (configuration not stated)
[1]
  IC50: > 29.5 µM

## Cc1nc(N2CCN(C)CC2)ncc1C(=O)N1CC(C)(C)C(C)(O)C1 (configuration not stated)
[1]
  IC50: > 29.5 µM

## CCC(NC(=O)C1CCN(S(C)(=O)=O)CC1)c1ccc(OC)c(C)c1 (configuration not stated)
[1]
  IC50: > 29.5 µM

## Cc1nc(N)sc1C(=O)N1CCCC(c2nccn2CCCN(C)C)C1 (configuration not stated)
[1]
  IC50: > 29.5 µM

## Cc1ccc(-c2nc(CNC3CCc4ncnn4C3)co2)c(C)c1 (configuration not stated)
[1]
  IC50: > 29.5 µM

## CCN(CC)CCNC(=O)c1cc(C(C)C)nc(N2CCCC2)n1
[1]
  IC50: > 29.5 µM

## CCc1ccc(NC(=O)N2C[C@H]3C[C@H](C(=O)NC)[C@@H](C2)O3)cc1
[1]
  IC50: > 29.5 µM

## CCc1nc(C2CCCN(C(=O)c3cn(C)nc3C)C2)no1 (configuration not stated)
[1]
  IC50: > 29.5 µM

## COC(=O)N1CCc2ccc(NC(=O)c3cn(C)nn3)cc2C1
[1]
  IC50: > 29.5 µM

## Cc1cc(C)n(CC2CN(Cc3cccc(C(N)=O)c3)CCO2)n1 (configuration not stated)
[1]
  IC50: > 29.5 µM

## O=C1N(Cc2cccc(F)c2F)CCCC1(O)CNC1CCCC1 (configuration not stated)
[1]
  IC50: > 29.5 µM

## Cn1ccnc1CN1CCC2(CC1)CN(CC1CC1)C(=O)CO2
[1]
  IC50: > 29.5 µM

## COCc1nc2cc(NCc3ccc(C)o3)ccc2o1
Lysine--tRNA ligase
  IC50: > 50.1 µM
[2]
  IC50: > 100 µM
Histidine--tRNA ligase
  IC50: 67.5 µM and 55.3 µM

## CCn1ccnc1CN1CCC(CCC(=O)Nc2ccccc2Cl)CC1
[1]
  IC50: > 29.5 µM

## Cc1ccc(CNC(=O)CN2CCN(CC(O)C3CC3)CC2)cc1 (configuration not stated)
[1]
  IC50: > 29.5 µM

## Cc1cccc(C(=O)N2C[C@@H](OCc3cccnc3)[C@H]3OCCC[C@@H]32)n1
[1]
  IC50: > 29.5 µM

## COCc1nc2cc(NCc3nc(C)cs3)ccc2o1
Lysine--tRNA ligase
  IC50: > 50.1 µM
[2]
  IC50: > 100 µM
Histidine--tRNA ligase
  IC50: 24.1 µM and 33.1 µM

## O=C(COCc1nc(-c2ccncc2)no1)N1CCCCCC1
[1]
  IC50: > 29.5 µM

## CCCN(C(=O)COC)c1nc2c(s1)CCc1c-2cnn1C
Lysine--tRNA ligase
  IC50: > 50.1 µM
[2]
  IC50: > 100 µM
Histidine--tRNA ligase
  IC50: 7.02 µM and 8.63 µM

## Cc1ccc(C(=O)N2CCn3cc(CN(C)Cc4ccco4)nc3C2)o1
[1]
  IC50: > 29.5 µM

## CCNC(=O)N(C)Cc1ccc(SC)c(OC)c1
[1]
  IC50: > 29.5 µM

## O=C(CS(=O)(=O)CC1CCCCC1)NC1CCCCNC1=O (configuration not stated)
[1]
  IC50: > 29.5 µM

## O=C(Cn1c(=O)n(Cc2ccco2)c2ncccc21)NC1CCCCC1
[1]
  IC50: > 29.5 µM

## c1cnn(Cc2nnc(C3CCN(C4CCOCC4)CC3)n2C2CC2)c1
[1]
  IC50: > 29.5 µM

## CC(Cn1cccn1)NC(=O)N1CCN(Cc2cccs2)CC1 (configuration not stated)
[1]
  IC50: > 29.5 µM

## O=C(Cc1cccnc1)N1CCC(OCc2ccccc2)CC1
[1]
  IC50: > 29.5 µM
